These results are taken from patent publication US12171806B2, “Therapeutic regimens and methods for lowering blood glucose and/or body weight using GLP-1R and GCGR balanced agonists” (priority 2021, dated 2024).

For orientation: pEC50 means −log10 of the EC50, conventionally taken in molar units. A lower pEC50 goes with a high EC50.

Experiment [1] addresses T1, glucagon (human, cloned into CHO cells) receptor (Homo sapiens, UniProt P47871).
T1 construct: host or cells: CHO cells
The experiment is described as follows: cAMP stimulation cellular assay (DiscoveRx LeadHunter), glucagon receptor. The format is cell-based. The note with it: 0.1% BSA.

The conditions of experiment [2]: over 26 weeks; cited from earlier work.
The conditions of experiment [3]: in 6 weeks; cited from earlier work.

Each structure is given as a SMILES string. pEC50: −log10 of the molar value.

T1 sequence (P47871 26-477): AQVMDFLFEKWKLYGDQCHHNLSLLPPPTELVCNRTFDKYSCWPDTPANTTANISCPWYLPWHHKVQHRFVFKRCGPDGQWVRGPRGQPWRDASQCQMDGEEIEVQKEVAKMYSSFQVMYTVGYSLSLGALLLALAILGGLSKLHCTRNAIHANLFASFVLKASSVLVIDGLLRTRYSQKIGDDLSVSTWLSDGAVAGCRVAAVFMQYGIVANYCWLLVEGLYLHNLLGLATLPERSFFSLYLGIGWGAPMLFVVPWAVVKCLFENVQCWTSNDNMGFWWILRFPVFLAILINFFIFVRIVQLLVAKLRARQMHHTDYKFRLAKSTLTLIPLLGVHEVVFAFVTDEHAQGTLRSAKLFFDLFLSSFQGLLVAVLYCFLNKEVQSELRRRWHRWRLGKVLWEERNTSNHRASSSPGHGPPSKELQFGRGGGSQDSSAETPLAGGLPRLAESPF

In experiment [1], `CC[C@H](C)[C@H](NC(=O)[C@H](Cc1ccccc1)NC(=O)[C@H](CCC(=O)O)NC(=O)[C@@H]1CCCCNC(=O)CC[C@H](NC(=O)[C@H](CC(=O)O)NC(=O)[C@H](CC(C)C)NC(=O)[C@H](Cc2ccc(O)cc2)NC(=O)[C@H](CCCCN)NC(=O)[C@H](CO)NC(=O)[C@H](Cc2ccc(O)cc2)NC(=O)[C@H](CC(=O)O)NC(=O)[C@H](CO)NC(=O)[C@@H](NC(=O)[C@H](Cc2ccccc2)NC(=O)[C@@H](NC(=O)CNC(=O)[C@H](CCC(N)=O)NC(=O)C(C)(C)NC(=O)[C@@H](N)Cc2c[nH]cn2)[C@@H](C)O)[C@@H](C)O)C(=O)N[C@@H](CCC(N)=O)C(=O)N[C@@H](C)C(=O)N[C@@H](C)C(=O)N1)C(=O)N[C@@H](CCCCNC(=O)[C@H]1O[C@@H](OCCCCCCCCCCCCCCCCCC(=O)O)[C@H](O)[C@@H](O)[C@@H]1O)C(=O)N[C@@H](Cc1c[nH]c2ccccc12)C(=O)N[C@@H](CC(C)C)C(=O)N[C@@H](CC(C)C)C(=O)N[C@@H](CCC(N)=O)C(=O)N[C@H](C(N)=O)[C@@H](C)O` [EU-A1872] gave a pEC50 of 8.58.
As to `CCCCCCCCCCCCCCCC(=O)N[C@@H](CCC(=O)NCCCC[C@H](NC(=O)[C@H](CC(=O)O)NC(=O)[C@H](CO)NC(=O)[C@@H](NC(=O)[C@H](Cc1ccccc1)NC(=O)[C@@H](NC(=O)CNC(=O)[C@H](CCC(N)=O)NC(=O)[C@H](CO)NC(=O)[C@@H](N)Cc1c[nH]cn1)[C@@H](C)O)[C@@H](C)O)C(=O)N[C@@H](CO)C(=O)N[C@@H](CCC(=O)O)C(=O)N[C@@H](Cc1ccc(O)cc1)C(=O)N[C@@H](CC(C)C)C(=O)N[C@@H](CC(=O)O)C(=O)N[C@@H](CO)C(=O)N[C@@H](CCC(=O)O)C(=O)N[C@@H](CCCNC(=N)N)C(=O)N[C@@H](C)C(=O)N[C@@H](CCCNC(=N)N)C(=O)N[C@@H](CC(=O)O)C(=O)N[C@@H](Cc1ccccc1)C(=O)N[C@H](C(=O)N[C@@H](C)C(=O)N[C@@H](Cc1c[nH]c2ccccc12)C(=O)N[C@@H](CC(C)C)C(=O)N[C@@H](CCC(=O)O)C(=O)N[C@@H](C)C(=O)NCC(=O)NCC(=O)O)C(C)C)C(=O)O` [cotadutide], in experiment [2], the weight loss is reported as 5.4%. Moreover, the “reduction in liver fat content / hepatic fat fraction” value in experiment [3] was 39%.
